Measurements: US6979686B1, “Substituted pyrazoles as p38 kinase inhibitors” (Pharmacia Corporation, priority 2001, dated 2005)
Read-outs that look alike come from different tables or passages of the source. One block for each compound: values may come before it.

Experiments:
human p38 kinase alpha = molecular target: T1, human p38 kinase alpha (Homo sapiens, UniProt Q16539); assay: p38 kinase in vitro assay, phosphorylation of biotinylated PHAS-I with 32P-ATP; type: biochemical; settings: for IC50: read-out: P38 alpha kinase IC50
T1 construct: GST (N, cleaved yes); made in house; host or cells: E. coli DH10B
T1 sequence (Q16539 whole entry): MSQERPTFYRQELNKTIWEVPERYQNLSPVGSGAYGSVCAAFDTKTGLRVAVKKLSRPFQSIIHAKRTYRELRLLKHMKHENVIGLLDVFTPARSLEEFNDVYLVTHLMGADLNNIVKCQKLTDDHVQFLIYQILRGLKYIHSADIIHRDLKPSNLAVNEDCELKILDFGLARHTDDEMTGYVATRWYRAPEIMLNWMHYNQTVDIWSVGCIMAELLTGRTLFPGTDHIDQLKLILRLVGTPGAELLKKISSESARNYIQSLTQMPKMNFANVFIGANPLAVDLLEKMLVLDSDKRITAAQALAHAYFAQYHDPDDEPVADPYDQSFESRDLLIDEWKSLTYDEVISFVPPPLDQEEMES

[1] = tested on: TNF-α, U937 human histiocytic lymphoma cell line; assay: LPS stimulation of TNF production by U937 cells; type: cell-based; settings: for inhibition at 1 µM: U-937, @ 1.0 uM; for U937 Cell % inhib @ conc. (uM): @ 1.0 uM
Protocol: Maintenance and Differentiation of the U937 Human Histiocytic Lymphoma Cell Line:
Fifty million cells in 100 ml media were induced to terminal monocytic differentiation by 24 hour incubation with 20 ng/ml phorbol 12-myristate 13-acetate (Sigma). The cells were washed by centrifugation (200×g for 5 min) and resuspended in 100 ml fresh medium. After 24-48 hours, the cells were harvested, centrifuged, and resuspended in culture medium at 2 million cells/ml.
LPS Stimulation of TNF Production by U937 Cells:
Compounds were prepared as 10 mM stock solutions in DMSO and diluted in culture medium to yield a final DMSO concentration of 0.1% in the cell assay. LPS (E coli, 100 ng/ml final concentration) was then added at a volume of 0.02 ml. After 4 hour incubation at 37° C., the amount of TNF-α released in the culture medium was quantitated by ELISA. Inhibitory potency is expressed as IC50 (μM).
In vitro whole cell assay for measuring the ability of the compounds to inhibit TNF production in human U937 cells stimulated with LPS are shown in the column identified as: • “U937 Cell IC50, uM or % inhib @ conc., (uM)”

[2] = in vitro P38-alpha kinase inhibition
[3] = Homo sapiens, U-937, TNF production, human U937 cells stimulated with LPS, read-out: U937 Cell IC50
[4] = Homo sapiens, TNF production, LPS-stimulated U937 cells, read-out: U937 Cell % inhib @ conc.
[5] = Homo sapiens, U-937, TNF production in human U937 cells stimulated with LPS, read-out: U937 Cell IC50
[6] = TNF production, U937 cells stimulated with LPS
[7] = TNF production in human U937 cells stimulated with LPS
[8] = Homo sapiens, TNF production, U937 cells stimulated with LPS, read-out: U937 Cell % inhib @ conc.

Structure (SMILES): O=C(NC(Cc1ccccc1)c1[nH]nc(-c2ccc(F)cc2)c1-c1ccncc1)C1CC1 (stereo not shown) [Example B-0805]
IC50 (human p38 kinase alpha; [2]): 710 nM
IC50 [1, 3]: > 1 µM

Structure (SMILES): CNC(=O)CCC(NC(=O)c1ccc(C)cc1)c1[nH]nc(-c2ccc(F)cc2)c1-c1ccncc1 (stereo not shown) [Example B-0873]
IC50 (human p38 kinase alpha; [2]): 6920 nM
IC50 [1, 3]: > 1 µM

Structure (SMILES): CNC(=O)NC(Cc1ccccc1)c1[nH]nc(-c2ccc(F)cc2)c1-c1ccncc1 (stereo not shown) [Example B-0775]
IC50 (human p38 kinase alpha; [2]): 600 nM
IC50 [1, 5]: > 1 µM

Structure (SMILES): C=CCOC(=O)NC(Cc1ccccc1)c1[nH]nc(-c2ccc(F)cc2)c1-c1ccncc1 (stereo not shown) [Example B-0801]
IC50 (human p38 kinase alpha; [2]): 670 nM
IC50 [1, 3]: > 1 µM

Structure (SMILES): CC(NC(=O)c1cccs1)c1[nH]nc(-c2ccc(F)cc2)c1-c1ccncc1 (stereo not shown) [Example B-0705]
IC50 (human p38 kinase alpha; [2]): 440 nM
U937 Cell % inhib @ conc. (uM) [1, 7]: 21.0% @

Structure (SMILES): O=C(NCc1[nH]nc(-c2ccc(F)cc2)c1-c1ccncc1)c1ccc(F)c(F)c1F [Example B-0026]
inhibition at 1 µM (human p38 kinase alpha; @ 1.0 uM, read-out: P38 alpha kinase % inhib @ conc.): 96%
IC50 [1, 3]: 3.27 µM

Structure (SMILES): COc1ccc(CC(=O)NC(C)c2[nH]nc(-c3ccc(F)cc3)c2-c2ccncc2)cc1OC (stereo not shown) [Example B-0548]
IC50 (human p38 kinase alpha; [2]): 1770 nM
inhibition at 1 µM ([1]; Homo sapiens, TNF production in human U937 cells stimulated with LPS, read-out: U937 Cell % inhib @ conc.): 28%

Structure (SMILES): O=C(NC(Cc1ccccc1)c1[nH]nc(-c2ccc(F)cc2)c1-c1ccncc1)c1ccccc1C(F)(F)F (stereo not shown) [Example B-0812]
IC50 (human p38 kinase alpha; [2]): 2120 nM
IC50 [1, 3]: > 1 µM

Structure (SMILES): Cc1cccc(C(=O)NC(C)c2[nH]nc(-c3ccc(F)cc3)c2-c2ccncc2)c1 (stereo not shown) [Example B-0692]
IC50 (human p38 kinase alpha; [2]): 380 nM
U937 Cell % inhib @ conc. (uM) [1, 7]: 29.0% @

Structure (SMILES): COc1ccc(CC(=O)NC(Cc2ccccc2)c2[nH]nc(-c3ccc(F)cc3)c2-c2ccncc2)cc1OC (stereo not shown) [Example B-0847]
IC50 (human p38 kinase alpha; [2]): 730 nM
inhibition at 1 µM [1, 8]: 21%

Structure (SMILES): CCCNC(=O)NC(C)c1[nH]nc(-c2ccc(F)cc2)c1-c1ccncc1 (stereo not shown) [Example B-0590]
IC50 (human p38 kinase alpha; [2]): 1570 nM
IC50 [1, 5]: 38 µM

Now from value to compound, other results behind:

IC50 (human p38 kinase alpha; in vitro P38-alpha kinase): 570 nM
IC50 [1, 3]: 1.38 µM
Structure (SMILES): O=C(c1ccc(Br)cc1)N1CCC(c2[nH]nc(-c3ccc(F)cc3)c2-c2ccncc2)CC1 [Example B-1388]

IC50 (human p38 kinase alpha; in vitro P38-alpha kinase): 300 nM
Structure (SMILES): COc1ccc(OC)c(S(=O)(=O)N2CCC(c3[nH]nc(-c4ccc(F)cc4)c3-c3ccncc3)CC2)c1 [Example B-1444]
inhibition at 1 µM [1, 4]: 24%

P38 alpha kinase % inhib @ conc. (uM) (human p38 kinase alpha; @ 1.0 uM): 79.0% @
Structure (SMILES): CCOC(=O)C(NC(=O)NCCc1[nH]nc(-c2ccc(F)cc2)c1-c1ccncc1)C(C)C (stereo not shown) [Example B-0976]
U937 Cell % inhib @ conc. (uM) [1, 6]: 36.0% @

P38 alpha kinase % inhib @ conc. (uM) (human p38 kinase alpha; @ 1.0 uM): 53.0% @
Structure (SMILES): COc1ccccc1C(=O)NCCc1[nH]nc(-c2ccc(F)cc2)c1-c1ccncc1 [Example B-0995]
U937 Cell % inhib @ conc. (uM) [1, 6]: 14.0% @

P38 alpha kinase % inhib @ conc. (human p38 kinase alpha; @ 10.0 uM): 84.0% @
IC50 ([1]; TNF production, human U937 cells stimulated with LPS, read-out: U937 Cell IC50): > 10 µM
Structure (SMILES): COC(=O)[C@H](CSCc1ccccc1)NC(=O)Cn1nc(-c2ccc(F)cc2)c(-c2ccncc2)c1C [Example B-2339]

IC50 (human p38 kinase alpha; in vitro P38-alpha kinase): 720 nM
Structure (SMILES): CCCNC(=O)Cn1nc(-c2ccc(F)cc2)c(-c2ccncc2)c1C [Example B-2270]
inhibition at 10 µM ([1]; Homo sapiens, U-937, @ 10.0 uM, TNF production, LPS-stimulated U937 cells, read-out: U937 Cell % inhib @ conc.): 31%

IC50 (human p38 kinase alpha; in vitro P38-alpha kinase): < 100 nM
IC50 [1, 3]: 0.77 µM
Structure (SMILES): COc1cccc(CC(=O)N2CCC(c3[nH]nc(-c4ccc(F)cc4)c3-c3ccncc3)CC2)c1 [Example B-1370]

P38 alpha kinase % inhib @ conc. (uM) (human p38 kinase alpha; @ 1.0 uM): 59.0% @
Structure (SMILES): COc1ccc(NC(=O)NCCc2[nH]nc(-c3ccc(F)cc3)c2-c2ccncc2)cc1 [Example B-0978]
U937 Cell % inhib @ conc. (uM) [1, 6]: 36.0% @

P38 alpha kinase IC50, uM or % inhib @ conc. (uM): % inhib (human p38 kinase alpha; @ 10.0 uM): 86.0% @
IC50 ([1]; TNF production, U937 cells stimulated with LPS, read-out: U937 Cell IC50, uM or % inhib @ conc. (uM): IC50): > 10 µM
Structure (SMILES): CCCCCCCCOc1cccc(NC(=O)Cn2nc(-c3ccc(F)cc3)c(-c3ccncc3)c2C)c1 [Example B-2442]

IC50 (human p38 kinase alpha; [2]): 720 nM
Structure (SMILES): O=C(NCCc1[nH]nc(-c2ccc(F)cc2)c1-c1ccncc1)c1cccc(Cl)c1Cl [Example B-1132]
inhibition at 1 µM [1, 8]: 11%

IC50 (human p38 kinase alpha; in vitro P38-alpha kinase): 490 nM
Structure (SMILES): COc1ccccc1CCNC(=O)Cn1nc(-c2ccc(F)cc2)c(-c2ccncc2)c1C [Example B-2315]
U937 Cell % inhib @ conc. ([1]; @ 10.0 uM, TNF production, LPS-stimulated U937 cells): 36.0% @

IC50 (human p38 kinase alpha; in vitro P38-alpha kinase): 3230 nM
Structure (SMILES): O=S(=O)(c1cccc(Cl)c1)N1CCC(c2[nH]nc(-c3ccc(F)cc3)c2-c2ccncc2)CC1 [Example B-1465]
inhibition at 1 µM [1, 4]: 31%
